Measured values published in patent US20240383856A1 (Zedira GmbH, priority 2021, published 2024).

Columns and labels:
[1] = biological target: T1, recombinant human transglutaminase 2 (Homo sapiens, UniProt P21980); assay: Transglutaminase assay (DCC-assay): incorporation of dansylcadaverine into dimethylcasein; type: biochemical; conditions: recombinant human TG2 10 nM; dansylcadaverine incorporation into dimethylcasein; read-out: IC50 TG2
T1 construct: purchased Zedira T022
T1 sequence (P21980 1-687): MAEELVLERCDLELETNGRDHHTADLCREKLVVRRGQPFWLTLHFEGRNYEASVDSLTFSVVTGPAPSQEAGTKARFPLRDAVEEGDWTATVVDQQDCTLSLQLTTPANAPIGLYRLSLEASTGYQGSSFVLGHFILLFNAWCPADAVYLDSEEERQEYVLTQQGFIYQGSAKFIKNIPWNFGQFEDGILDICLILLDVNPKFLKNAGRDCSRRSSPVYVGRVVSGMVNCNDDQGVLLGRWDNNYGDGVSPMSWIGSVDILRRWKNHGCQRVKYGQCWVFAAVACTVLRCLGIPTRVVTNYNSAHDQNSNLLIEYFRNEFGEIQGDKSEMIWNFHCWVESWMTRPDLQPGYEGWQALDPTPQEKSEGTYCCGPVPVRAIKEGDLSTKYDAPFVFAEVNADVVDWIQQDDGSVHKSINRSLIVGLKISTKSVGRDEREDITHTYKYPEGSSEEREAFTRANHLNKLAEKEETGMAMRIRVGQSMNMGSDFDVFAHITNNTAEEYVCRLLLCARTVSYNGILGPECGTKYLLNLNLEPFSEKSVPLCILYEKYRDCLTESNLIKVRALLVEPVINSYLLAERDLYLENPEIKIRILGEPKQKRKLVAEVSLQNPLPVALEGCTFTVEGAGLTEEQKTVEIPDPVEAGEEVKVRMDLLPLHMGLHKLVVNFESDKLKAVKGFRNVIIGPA
Summary of the method: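 IC50 is the inhibitor level that blocks 50% of initial activity. Activity is the fluorescence slope (λex 330, λem 500 nm) between 20 and 30 min of a 37 °C run, relative to a 2% DMSO control. The enzyme is recombinant human tissue transglutaminase, 10 nM final, tested against a 1:2 inhibitor dilution series in a pH 8.0 mix with 10 mM CaCl2, 10 mM glutathione, 16.7 µM dansylcadaverine and 4 µM N,N-dimethylcasein.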

[2] = logD by shake flask method (octanol / PBS pH 7.4, HPLC); type: physicochemical; conditions: octanol / PBS pH 7.4, shake flask
Summary of the method: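 LogD obtained by HPLC measurement of how the compound distributes between PBS (pH 7.4) and octanol in a shake-flask experiment.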

[3] = Caco-2 permeability assay (CacoReady kit); type: in vitro ADME; conditions: human, Caco-2, Caco-2 barrier, CacoReady kit; above 1×10^−6 cm/s classified as permeable
Summary of the method: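 Intestinal permeability modelled with kit-supplied Caco-2 barriers, run as the maker specifies; each compound reported as Papp.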

| IC50 [1] | logD [2] | Papp [3] | Compound |
| --- | --- | --- | --- |
| 400 to 2500 nM | < 1 | < 1 ×10⁻⁶ cm/s | Cn1nccc1C(=O)N[C@@H](CCC(=O)C(N)=O)C(=O)Nc1cccn(CC(=O)NC2C3CC4CC(C3)CC2C4)c1=O (stereo partly drawn) [II-144, (S)-N1-(1-(2-(2-adamantylamino)-2-oxoethyl)-2-oxo-1,2-dihydropyridin-3-yl)-2-(1-methyl-1H-pyrazole-5-carboxamido)-5-oxohexanediamide] |
| 40 to 400 nM | < 1 | < 1 ×10⁻⁶ cm/s | Cc1nnsc1C(=O)N[C@@H](CCC(=O)C(N)=O)C(=O)Nc1cccn(CC(=O)NC2C3CC4CC(C3)CC2C4)c1=O (stereo partly drawn) [II-145, (S)-N1-(1-(2-(2-adamantylamino)-2-oxoethyl)-2-oxo-1,2-dihydropyridin-3-yl)-2-(4-methyl-1,2,3-thiadiazole-5-carboxamido)-5-oxohexanediamide] |
| < 40 nM | < 1 | 1 to 10 ×10⁻⁶ cm/s | NC(=O)C(=O)CC[C@H](NC(=O)c1cc2ccccc2o1)C(=O)Nc1cccn(CC(=O)N[C@@H]2C[C@H]3CC[C@@H]2C3)c1=O [II-146, (S)-2-(benzofuran-2-carboxamido)-N1-(1-(2-((1R,2R,4S)-bicyclo[2.2.1]heptan-2-ylamino)-2-oxoethyl)-2-oxo-1,2-dihydropyridin-3-yl)-5-oxohexanediamide] |
| < 40 nM | < 1 | 1 to 10 ×10⁻⁶ cm/s | Cc1c(C(=O)N[C@@H](CCC(=O)C(N)=O)C(=O)Nc2cccn(CC(=O)N[C@@H]3C[C@H]4CC[C@@H]3C4)c2=O)oc2ccccc12 [II-147, (S)-N1-(1-(2-((1R,2R,4S)-bicyclo[2.2.1]heptan-2-ylamino)-2-oxoethyl)-2-oxo-1,2-dihydropyridin-3-yl)-2-(3-methylbenzofuran-2-carboxamido)-5-oxohexanediamide] |
| < 40 nM | < 1 | 1 to 10 ×10⁻⁶ cm/s | NC(=O)C(=O)CC[C@H](NC(=O)c1cc2ccccc2o1)C(=O)Nc1cccn(CC(=O)N[C@@H]2C[C@@H]3CC[C@H]2C3)c1=O [II-148, (S)-2-(benzofuran-2-carboxamido)-N1-(1-(2-((1S,2R,4R)-bicyclo[2.2.1]heptan-2-ylamino)-2-oxoethyl)-2-oxo-1,2-dihydropyridin-3-yl)-5-oxohexanediamide] |
| < 40 nM | < 1 | 1 to 10 ×10⁻⁶ cm/s | Cc1c(C(=O)N[C@@H](CCC(=O)C(N)=O)C(=O)Nc2cccn(CC(=O)N[C@@H]3C[C@@H]4CC[C@H]3C4)c2=O)oc2ccccc12 [II-149, (S)-N1-(1-(2-((1S,2R,4R)-bicyclo[2.2.1]heptan-2-ylamino)-2-oxoethyl)-2-oxo-1,2-dihydropyridin-3-yl)-2-(3-methylbenzofuran-2-carboxamido)-5-oxohexanediamide] |
| 40 to 400 nM | 1 to 3 | 1 to 10 ×10⁻⁶ cm/s | CC1(C)[C@@H]2CC[C@@]1(C)[C@@H](NC(=O)Cn1cccc(NC(=O)[C@H](CCC(=O)C(N)=O)NC(=O)c3cc4ccccc4o3)c1=O)C2 [II-150, (S)-2-(benzofuran-2-carboxamido)-5-oxo-N1-(2-oxo-1-(2-oxo-2-((1R,2S,4R)-1,7,7-trimethylbicyclo[2.2.1]heptan-2-ylamino)ethyl)-1,2-dihydropyridin-3-yl)hexanediamide] |
| 40 to 400 nM | 1 to 3 | 1 to 10 ×10⁻⁶ cm/s | Cc1c(C(=O)N[C@@H](CCC(=O)C(N)=O)C(=O)Nc2cccn(CC(=O)N[C@H]3C[C@H]4CC[C@]3(C)C4(C)C)c2=O)oc2ccccc12 [II-151, (S)-2-(3-methylbenzofuran-2-carboxamido)-5-oxo-N1-(2-oxo-1-(2-oxo-2-((1R,2S,4R)-1,7,7-trimethylbicyclo[2.2.1]heptan-2-ylamino)ethyl)-1,2-dihydropyridin-3-yl)hexanediamide] |
| 40 to 400 nM | < 1 | < 1 ×10⁻⁶ cm/s | CNC(=O)C(=O)CC[C@H](NC(=O)c1snnc1C)C(=O)Nc1cccn(CC(=O)N[C@@H]2C[C@H]3CC[C@@H]2C3)c1=O [II-152, (S)-N1-(1-(2-((1R,2R,4S)-bicyclo[2.2.1]heptan-2-ylamino)-2-oxoethyl)-2-oxo-1,2-dihydropyridin-3-yl)-N6-methyl-2-(4-methyl-1,2,3-thiadiazole-5-carboxamido)-5-oxohexanediamide] |
| 400 to 2500 nM | < 1 | < 1 ×10⁻⁶ cm/s | CNC(=O)C(=O)CC[C@H](NC(=O)c1ccnn1C)C(=O)Nc1cccn(CC(=O)N[C@@H]2C[C@H]3CC[C@@H]2C3)c1=O [II-153, (S)-N1-(1-(2-((1R,2R,4S)-bicyclo[2.2.1]heptan-2-ylamino)-2-oxoethyl)-2-oxo-1,2-dihydropyridin-3-yl)-N6-methyl-2-(1-methyl-1H-pyrazole-5-carboxamido)-5-oxohexanediamide] |
| 40 to 400 nM | 1 to 3 | 1 to 10 ×10⁻⁶ cm/s | CNC(=O)C(=O)CC[C@H](NC(=O)c1sc(C(F)(F)F)nc1C)C(=O)Nc1cccn(CC(=O)N[C@@H]2C[C@@H]3CC[C@H]2C3)c1=O [II-154, (S)-N1-(1-(2-((1S,2R,4R)-bicyclo[2.2.1]heptan-2-ylamino)-2-oxoethyl)-2-oxo-1,2-dihydropyridin-3-yl)-N6-methyl-2-(4-methyl-2-(trifluoromethyl)thiazole-5-carboxamido)-5-oxohexanediamide] |
| < 40 nM | 1 to 3 | 1 to 10 ×10⁻⁶ cm/s | CNC(=O)C(=O)CC[C@H](NC(=O)c1cc(Cl)sc1Cl)C(=O)Nc1cccn(CC(=O)N[C@@H]2C[C@@H]3CC[C@H]2C3)c1=O [II-155, (S)-N1-(1-(2-((1S,2R,4R)-bicyclo[2.2.1]heptan-2-ylamino)-2-oxoethyl)-2-oxo-1,2-dihydropyridin-3-yl)-2-(2,5-dichlorothiophene-3-carboxamido)-N6-methyl-5-oxohexanediamide] |
| 40 to 400 nM | < 1 | < 1 ×10⁻⁶ cm/s | CNC(=O)C(=O)CC[C@H](NC(=O)c1snnc1C)C(=O)Nc1cccn(CC(=O)N[C@@H]2C[C@@H]3CC[C@H]2C3)c1=O [II-156, (S)-N1-(1-(2-((1S,2R,4R)-bicyclo[2.2.1]heptan-2-ylamino)-2-oxoethyl)-2-oxo-1,2-dihydropyridin-3-yl)-N6-methyl-2-(4-methyl-1,2,3-thiadiazole-5-carboxamido)-5-oxohexanediamide] |
| 40 to 400 nM | < 1 | < 1 ×10⁻⁶ cm/s | CNC(=O)C(=O)CC[C@H](NC(=O)c1cnnn1C)C(=O)Nc1cccn(CC(=O)N[C@@H]2C[C@@H]3CC[C@H]2C3)c1=O [II-157, (S)-N1-(1-(2-((1S,2R,4R)-bicyclo[2.2.1]heptan-2-ylamino)-2-oxoethyl)-2-oxo-1,2-dihydropyridin-3-yl)-N6-methyl-2-(1-methyl-1H-1,2,3-triazole-5-carboxamido)-5-oxohexanediamide] |
| 40 to 400 nM | < 1 | < 1 ×10⁻⁶ cm/s | CNC(=O)C(=O)CC[C@H](NC(=O)c1ccnn1C)C(=O)Nc1cccn(CC(=O)N[C@@H]2C[C@@H]3CC[C@H]2C3)c1=O [II-158, (S)-N1-(1-(2-((1S,2R,4R)-bicyclo[2.2.1]heptan-2-ylamino)-2-oxoethyl)-2-oxo-1,2-dihydropyridin-3-yl)-N6-methyl-2-(1-methyl-1H-pyrazole-5-carboxamido)-5-oxohexanediamide] |
| 40 to 400 nM | 1 to 3 | 1 to 10 ×10⁻⁶ cm/s | CNC(=O)C(=O)CC[C@H](NC(=O)c1sc(C(F)(F)F)nc1C)C(=O)Nc1cccn(CC(=O)N[C@H]2C[C@H]3CC[C@]2(C)C3(C)C)c1=O [II-159, (S)-N1-methyl-5-(4-methyl-2-(trifluoromethyl)thiazole-5-carboxamido)-2-oxo-N6-(2-oxo-1-(2-oxo-2-((1R,2S,4R)-1,7,7-trimethylbicyclo[2.2.1]heptan-2-ylamino)ethyl)-1,2-dihydropyridin-3-yl)hexanediamide] |
| 40 to 400 nM | 1 to 3 | 1 to 10 ×10⁻⁶ cm/s | CNC(=O)C(=O)CC[C@H](NC(=O)c1cc(Cl)sc1Cl)C(=O)Nc1cccn(CC(=O)N[C@H]2C[C@H]3CC[C@]2(C)C3(C)C)c1=O [II-160, (S)-2-(2,5-dichlorothiophene-3-carboxamido)-N6-methyl-5-oxo-N1-(2-oxo-1-(2-oxo-2-((1R,2S,4R)-1,7,7-trimethylbicyclo[2.2.1]heptan-2-ylamino)ethyl)-1,2-dihydropyridin-3-yl)hexanediamide] |
